The values below come from US20060089395A1, “Nf-kb activation inhibitors” (priority 2002, published 2006).

Like-named read-outs stand apart in the source and are kept apart here.

Assay [1] relates to myocardial ischemia reperfusion disorder. Nature of the assay: Inhibitory test against myocardial ischemia reperfusion disorder in rats. The class given is in vivo, rat. As to conditions: 5 mg/kg intraperitoneally; 24 hours after reperfusion. The protocol: Left coronary artery of 7 to 9 week-old rat was ligated to induce ischemic state. After 25 minutes, a test substance suspended in an appropriate diluent or the diluent alone (negative control) was intraperitoneally administered, and after 30 minutes, the animal was reperfused. After 24 hours, a rate of necrosis of an ischemic part of the cardiac muscle was measured.

In assay [2] the test system is IL-6. Nature of the assay: Inhibition of IL-6 production by TNFα stimulation in synovial fibroblasts derived from a rheumatoid patient (ELISA). It is filed as cell-based, human. Particulars: Homo sapiens, Fibroblast, 72 h; synovial fibroblasts, 10 ng/ml TNFα, 3 days; read-out: Inhibition against Mediator Release IC50(nM) IL-6. The protocol:
(§1) Synovial fibroblasts (Human Synoviocyte (RA-Positive), Toyobo, T4040-05) were cultured for 3 days in a medium containing 10 ng/ml of TNFα and a test compound. IL-6 and IL-8 in the supernatant were measured by the ELISA method, and PGE2 (prostaglandin E2) was measured by the EIA method.
For orientation: In an ELISA, binding on a coated surface is turned into a signal by an enzyme label.

For assay [3], the system named is type II collagen induced arthritis. In words: Inhibitory test against type II collagen induced arthritis in mice. It is filed as in vivo, Balb/c mice. Particulars: 10 mg/kg intraperitoneally once in two days; day 44; score of the control = 100%. The protocol:
Balb/c mice were immunized with heterologous type II collagen and Freund's complete adjuvant by subcutaneous or intraperitoneal injection. At 21 days after the treatment, these mice were immunized again with heterologous type II collagen and Freund's incomplete adjuvant by subcutaneous or intraperitoneal injection to develop arthritis.
A test substance suspended in an appropriate diluent or the diluent alone (negative control) was administered intraperitoneally once in two days from the day of the first immunization, and as for arthritis developed after the second immunization, clinical symptoms of each ankle joint of all foots were recorded day after day as numerous scores. When the score of the control measured on day 44 after administration of 10 mg/kg of the medicament of the present invention was expresses as 100%, rates of exacerbation (%) of the clinical symptoms of arthritis were 37.5 (Compound No. 4), 76.5 (Compound No. 90), 56.2 (Compound No. 11), 64.0 (Compound No. 88), and 0.0 (Compound No. 83).

Assay [4] deals with NF-κ B. Nature of the assay: Inhibitory activity of NF-κ B activation, luciferase reporter assay in HepG2 under TNF-α stimulation. It is filed as cell-based, human. As to conditions: Homo sapiens. The essentials:
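Readout is firefly luciferase luminescence, expressed as inhibition versus compound-free wells. Before this, HepG2 cells carrying a transiently transfected 5×NF-κB-site luciferase plasmid (6–24 h post-transfection) received test compound plus TNF-α (40 ng/ml) for 4 h.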
(In a reporter assay the amount or activity of a reporter protein is the signal.)

The subject of assay [5] is artery abrasion restenosis. Nature of the assay: Mouse artery abrasion restenosis model. It is filed as in vivo. Particulars: intraperitoneal administration at 10 mg/kg.
Assay [6] concerns PGE2. Nature of the assay: Inhibition of PGE2 production by TNFα stimulation in synovial fibroblasts derived from a rheumatoid patient (EIA). It is filed as cell-based, human. Particulars: Homo sapiens, Fibroblast, 72 h; synovial fibroblasts, 10 ng/ml TNFα, 3 days; read-out: Inhibition against Mediator Release IC50(nM) PGE2. The protocol:
as §1

For assay [7], the system named is IL-8. In words: Inhibition of IL-8 production by TNFα stimulation in synovial fibroblasts derived from a rheumatoid patient (ELISA). Particulars: Homo sapiens, Fibroblast, 72 h; synovial fibroblasts, 10 ng/ml TNFα, 3 days; read-out: Inhibition against Mediator Release IC50(nM) IL-8. The class given is cell-based, human. The protocol:
as §1

Assay [8] concerns Thy-1 nephritis. In words: Rat Thy-1 nephritis model. The class given is in vivo. Particulars: intraperitoneal administration of less than 15 mg/kg.
Assay [9] concerns myocarditis. Nature of the assay: Rat myocarditis model immunized with pig heart-derived cardiac myosin. It is filed as in vivo. As to conditions: intraperitoneal administration at 10 mg/kg.
In assay [10] the test system is Vascular smooth muscle cells of normal coronary artery (Cryo CASMC). Nature of the assay: Inhibitory test against proliferation of vascular smooth muscle cells of normal coronary artery under proliferation stimulation (MTS assay). It is filed as cell-based. As to conditions: FGF and EGF stimulation, 72 hours. The protocol:
Vascular smooth muscle cells of normal coronary artery (Cryo CASMC) were cultured for 2 hours in the presence or absence of a test substance in DMEM medium containing 0.5% of FBS and insulin (5 u g/ml). Then, FGF and EGF were added for proliferation stimulation. The mixture was cultured for 72 hours and proliferation of the cells were measured by the MTS assay. The results aree shown in the following
Background: Tetrazolium dyes change colour on reduction, which living cells bring about.

Assay [11] relates to intestinal ischemic reperfusion-caused hepatopathy. In words: Rat intestinal ischemic reperfusion-caused hepatopathy model. The class given is in vivo. As to conditions: intraperitoneal administration of 10 mg/kg.

Turning to `O=C(Nc1cc(C(F)(F)F)cc(C(F)(F)F)c1)c1cc(Cl)ccc1O` [Compound No.4, N-[3,5-bis(trifluoromethylphenyl)]-5-chloro-2-hydroxybenzamide], in [1], the “inhibition of the necrosis of the cardiac muscle in comparison with the control” value is recorded as 60%. In addition, the IC50 (in general, the concentration at which inhibition is half-maximal) in assay [2] worked out at 294 nM; in [6], 388 nM; in assay [7], 450 nM. The “rates of exacerbation (%) of the clinical symptoms of arthritis” value in [3] was determined as 37.5%. For the same compound, the inhibition at 0.1 µg/mL in assay [4] (HepG2, 4 h, 0.1 μg/ml, comparison table, reporter assay, read-out: Inhibitory Ratio of NF-κB Activation (%) 0.1 μg/ml) turned out to be 60.9%. Further, the inhibition at 1 µg/mL was found to be 95.7% in [4] (HepG2, 4 h, 1 μg/ml, comparison table, reporter assay, read-out: Inhibitory Ratio of NF-κB Activation (%) 1 μg/ml) and 95.7% in [4] (1 μg/mL, HepG2, TNF-α (40 ng/ml), 4 hours, read-out: Inhibitory Ratio of NF-κ B Activation(%) Drug Concentration 1 μg/mL). Besides, the inhibition at 10 µg/mL in assay [4] (HepG2, 4 h, 10 μg/ml, comparison table, reporter assay, read-out: Inhibitory Ratio of NF-κB Activation (%) 10 μg/ml) is 97.5%; in [4] (10 μg/mL, HepG2, TNF-α (40 ng/ml), 4 hours, read-out: Inhibitory Ratio of NF-κ B Activation(%) Drug Concentration 10 μg/mL), 97.5%. Moreover, the “inhibition of proliferation of vascular endothelial cells and vascular smooth muscle cells” value in assay [5] was “significantly inhibited proliferation of vascular endothelial cells and vascular smooth muscle cells”. Moreover, the renal protective action result in [8] is on record as “exhibited a renal protective action”. The “inhibition of the onset of myocarditis” value in [9] is given as “significantly also inhibited the onset of myocarditis”. Further, the “Inhibitory Ratio of Proliferation(%) Compound Concentration 250 nM” value in [10] (250 nM) is given as 87.9%. Further, the “Inhibitory Ratio of Proliferation(%) Compound Concentration 500 nM” value in assay [10] (500 nM) is 92.2%. Further, the “TNFα concentration in blood” value in assay [11] is reported as “lowered”. Moreover, the “endotoxic levels in blood” value in assay [11] is “lowered endotoxic levels”. The inhibition of hepatopathy entry in assay [11] is listed as “significantly inhibited hepatopathy”.
